{
  "source": "patent US7968558B2",
  "about": "“Amidine derivatives of 2-heteroaryl-quinazolines and quinolines; potent analgesics and anti-inflammatory agents” (Rottapharm S.p.A., priority 2006, dated 2011)",
  "key": {"IL-6 production": {"tested_on": "IL-6 production", "test": "IL-6 production in IL-1 stimulated human chondrosarcoma cell line", "assay_type": "cell-based", "conditions": "Compound concentration is 10 μM", "excerpt": "The compounds of the invention have been found effective in interfering with cytokine production in several cell lines, representative examples of this effect are reported in Table 3, for two representative cytokines, in IL-1 stimulated human chondrosarcoma cell line."}, "[1]": {"tested_on": "Zymosan-induced mechanical hyperalgesia", "test": "Zymosan-induced mechanical hyperalgesia (Randall-Selitto)", "assay_type": "in vivo, rat", "conditions": "oral", "description": "The interplantar injection of Zymosan-induced mechanical hyperalgesia was used as a model of inflammatory pain (Meller, Neuropharmacology, 1994, 33, 1471-1478). In this model, typically a male Sprague-Dawley or Wistar rat (200-250 g) receives an interplantar injection of 3 mg/100 μl zymosan into one hind paw. A marked inflammation occurs in this hind paw. Drugs are administered orally for evaluation of efficacy, 30 min. before the inflammatory insult. The hyperalgesia induced by zymosan administration was evaluated using the Randall-Selitto method (Arch. Int. Pharmacodyn., 1957, 111, 409). The quantitation of the analgesic effect is achieved by an analgesimeter, which consist in applying to the inflamed paw an increasing weight (from 130-140 g up to 500 g). The difference in the mechanical pain threshold between the basal value (generally 230-250 g) and the one tolerated by the animals treated with the drug, determined 4 hours after the inflammatory challenge, is defined as mechanical hyperalgesia.\nMechanical hyperalgesia is expressed for the compounds of the invention as ED50, which is the dose of the administered compound able to increase the pain threshold by 50% in comparison with the group of control animals. The corresponding ED100, representing the dose able of reducing of 100% the pain threshold, can be calculated for those cases where there is a linear dose-response relationship. In vivo anti-inflammatory effect exerted by the compound of the invention can be assessed in the same Zymosan induced inflammation test described above, by measuring the volume of the oedema induced by the inflammatory agent. The oedema was evaluated as the increase in the volume of the Zymosan injected paw within a time of 0-2 hrs. The measurements of the variation of the oedema volume of the paw were recorded using hydroplethysmometer, which consists of two plastic cuvettes containing a surfactant liquid, the larger one being used for immersion of the paw, connected to the smaller one which contains a trans-ducer capable of recording small displacements of the volume used for the measure. The paw is immersed in the cuvettes up to the tibiotarsal joint. The volume of the liquid displaced is proportional to the extent of the inflammation. The efficacy of the compounds of the invention in preventing oedema formation is expressed as ED30, and is measured 2 hours after the inflammatory challenge, and represents the dose able of reducing of 30%, the Zymosan induced paw volume increase in comparison to control animals (animals treated with Zymosan but treated with only distilled water instead of the testing compound). The corresponding ED50, representing the dose able of reducing of 50% the zymosan induced paw volume increase, can be calculated for those cases where there is a linear dose-response relationship.\nIn both the experiments, for each test compound, at least three doses were used, with 10 animals per group. Compounds of the invention were tested at 10, 20 and 40 mg/Kg."}, "[2]": {"tested_on": "acetic acid-induced abdominal writhes", "test": "Acetic acid-induced writhing test", "assay_type": "in vivo, mice", "conditions": "for MPE (%): 30 min. before acetic acid", "description": "With the aim of assessing whether the compounds of the invention are able to inhibit responses to peritoneal irritation-induced visceral pain, the acetic acid-induced writhing assay was used in mice to determine the degree of anti-nociception.\nThe writhing test is a model of inflammatory pain that has long been used as a screening tool for evaluation of analgesic and anti-inflammatory agents (HDJ Collier, B. J. Pharmacol Chemother., 1968, 32, 295-310). The test was performed inducing nociception by an i.p. injection of acetic acid 1%, 0.1 mL/10 g of body weight. Mice were pre-treated (subcutaneously, s.c., three different doses: 3, 10, 30 mg/Kg) with the tested compounds 30 min. before acetic acid injection, while control animals received a similar volume of saline solution. A group of mice was treated with Paracetamol (200 mg/Kg, s.c.) as reference drug. The number of abdominal writhes (full extension of both hind paws) was cumulatively counted every 5 minutes over a period of 20 min. immediately after the acetic acid injection. The anti-nociceptive activity was expressed as inhibition of abdominal writhes as maximum percent effect (MPE), which represents the difference (%) in pain threshold between the animals treated with the drug and the ones that received only the vehicle."}, "[3]": {"tested_on": "formalin-induced paw licking", "test": "Formalin (licking) test", "assay_type": "in vivo, mice", "conditions": "Mus musculus, ip, 1 hour before formalin", "description": "The formalin test is increasingly used as a model of injury-produced pain (FV. Abbott, Pain, 1995, 60, 91-102). The procedure used for the evaluation of the compounds of the invention was similar to that reported by literature (S. Hunskaar, Pain, 1987, 30, 103-104), and consisted of the injection of 20 μl of 1% solution of formalin dissolved in distilled water, in the plantar surface of the right hind paw of the mice. Immediately, the animals were placed individually in an observation chamber. The amount of time that the animal spent licking the injected paw, considered indicative of pain, was recorded during 30 min. following formalin injection. The initial nociceptive scores normally peaked 5 min after formalin injection (early phase) and 15-30 min. after formalin injection (late phase), representing both the neurogenic and inflammatory pain responses respectively.\nAnimals were treated i.p. with an aqueous solution of the tested compound (doses: 3, 10, 30 mg/Kg), 1 hour before the formalin injection. Control animals received only the vehicle.\nIn Table 8, the analgesic effect elicited in this test by a representative compound of Formula (I), is expressed as ED50 both for the early and late phase, and compared with the performance of the standard reference, paracetamol."}},
  "note": "Read-outs that look alike come from different tables or passages of the source.",
  "data": [
    {"smiles": "CC(=N)Nc1ccc2nc(-c3ccc4c(c3)OCO4)ncc2c1", "note": "[Example 1, N-[2-(1,3-benzodioxol-5-yl)quinazolin-6-yl]acetamidine]", "values": [
      {"measurement": "Inhibition (%) of IL-6 production", "setting": "IL-6 production", "value": 65, "unit": "%"},
      {"measurement": "ED50", "setting": "[1]; Rattus norvegicus, 30 min before zymosan, 4 hours after challenge, read-out: Analgesia ED50", "value": 6, "unit": "mg/kg"},
      {"measurement": "Analgesia ED100", "setting": "[1]; calculated from linear dose-response", "value": 18, "unit": "mg/kg"},
      {"measurement": "MPE (%)", "setting": "[2]; 3 mg/Kg s.c.", "value": 30, "unit": "%"},
      {"measurement": "MPE (%)", "setting": "[2]; 10 mg/Kg s.c.", "value": 33, "unit": "%"},
      {"measurement": "MPE (%)", "setting": "[2]; 30 mg/Kg s.c.", "value": 89, "unit": "%"},
      {"measurement": "ED50", "setting": "[2]; Mus musculus, sc, writhing test, read-out: ED50", "value": 9.8, "unit": "mg/kg"},
      {"measurement": "ED50", "setting": "[3]; early phase, read-out: Analgesic effect ED50 (mg/Kg) Early phase", "value": 19, "unit": "mg/kg"},
      {"measurement": "ED50", "setting": "[3]; late phase, read-out: Analgesic effect ED50 (mg/Kg) Late phase", "value": 13, "unit": "mg/kg"}
    ]}
  ]
}
